One data set can be described thus: Kinetic solubility. The following applies: kinetic from dmso stock, n = 1 or average (n = 2-4). The format is physicochemical. The protocol:
Kinetic solubility was measured as described in Comput Aided Mol Des 2015, 29, 795.

A short description of data set [1]: Metabolic stability in human liver microsomes (HLM). In kind it is in vitro ADME. The following applies: n = 1 or average (n = 2-3). As to the method:
Metabolic stability in HLM was measured as described in J Comput Aided Mol Des 2015, 29, 795.

The target of data set [2] is T1, Prolyl endopeptidase, Prolyl Oligopeptidase (hPREP) (Homo sapiens, UniProt P48147).
T1 sequence (P48147 1-710): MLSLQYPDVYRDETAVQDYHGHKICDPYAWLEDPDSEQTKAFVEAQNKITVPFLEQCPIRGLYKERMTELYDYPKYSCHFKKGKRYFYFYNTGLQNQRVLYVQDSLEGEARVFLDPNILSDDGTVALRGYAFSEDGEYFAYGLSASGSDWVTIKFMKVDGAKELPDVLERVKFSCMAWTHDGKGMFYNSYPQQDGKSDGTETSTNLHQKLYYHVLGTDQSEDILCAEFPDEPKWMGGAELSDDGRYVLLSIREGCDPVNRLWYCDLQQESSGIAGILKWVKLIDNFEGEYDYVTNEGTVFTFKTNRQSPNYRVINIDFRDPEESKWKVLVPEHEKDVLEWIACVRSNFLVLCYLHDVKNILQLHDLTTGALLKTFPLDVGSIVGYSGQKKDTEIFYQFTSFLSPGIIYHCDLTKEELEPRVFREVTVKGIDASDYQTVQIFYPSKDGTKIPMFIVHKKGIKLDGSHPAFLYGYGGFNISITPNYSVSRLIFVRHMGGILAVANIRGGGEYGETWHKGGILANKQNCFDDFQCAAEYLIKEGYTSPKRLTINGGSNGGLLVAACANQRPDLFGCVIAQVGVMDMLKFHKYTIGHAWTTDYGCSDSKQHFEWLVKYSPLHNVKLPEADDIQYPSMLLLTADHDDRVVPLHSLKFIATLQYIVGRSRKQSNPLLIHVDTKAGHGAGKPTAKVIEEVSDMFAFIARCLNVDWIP
As to the kind of experiment: biochemical.

The next data set addresses T2, hFAP (M39-A757) (Homo sapiens, UniProt Q12884).
T2 sequence (Q12884 39-757): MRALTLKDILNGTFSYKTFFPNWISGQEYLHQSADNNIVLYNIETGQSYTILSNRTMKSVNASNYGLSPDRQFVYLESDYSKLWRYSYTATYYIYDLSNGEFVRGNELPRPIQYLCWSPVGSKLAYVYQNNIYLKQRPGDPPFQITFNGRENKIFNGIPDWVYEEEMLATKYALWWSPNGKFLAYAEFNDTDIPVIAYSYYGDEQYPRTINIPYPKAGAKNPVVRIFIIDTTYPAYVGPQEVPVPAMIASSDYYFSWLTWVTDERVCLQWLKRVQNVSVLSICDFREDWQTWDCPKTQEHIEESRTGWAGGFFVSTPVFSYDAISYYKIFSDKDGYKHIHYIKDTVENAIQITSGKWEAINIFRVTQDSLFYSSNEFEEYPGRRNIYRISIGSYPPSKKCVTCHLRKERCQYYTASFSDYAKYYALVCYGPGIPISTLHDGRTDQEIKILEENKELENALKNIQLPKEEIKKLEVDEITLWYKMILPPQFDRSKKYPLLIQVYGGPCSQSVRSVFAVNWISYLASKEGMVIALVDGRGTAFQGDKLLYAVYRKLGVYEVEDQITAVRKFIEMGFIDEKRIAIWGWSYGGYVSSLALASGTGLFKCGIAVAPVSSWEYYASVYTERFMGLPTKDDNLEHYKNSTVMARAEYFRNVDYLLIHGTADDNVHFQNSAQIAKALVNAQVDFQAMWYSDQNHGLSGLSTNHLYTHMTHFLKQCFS
The experiment in a line: biochemical.

In a further data set the test system is Rat Hepatocytes (rHep). As to the kind of experiment: Metabolic stability in rat hepatocytes (rHep). The note with it: n = 1 or geometric mean (n = 2-3). In kind it is in vitro ADME. The protocol: Metabolic stability in rat hepatocytes was measured as described in J Comput Aided Mol Des 2015, 29, 795.
The target of the next data set is T3, hFAP (Homo sapiens, UniProt Q12884).
T3 sequence (Q12884 38-760): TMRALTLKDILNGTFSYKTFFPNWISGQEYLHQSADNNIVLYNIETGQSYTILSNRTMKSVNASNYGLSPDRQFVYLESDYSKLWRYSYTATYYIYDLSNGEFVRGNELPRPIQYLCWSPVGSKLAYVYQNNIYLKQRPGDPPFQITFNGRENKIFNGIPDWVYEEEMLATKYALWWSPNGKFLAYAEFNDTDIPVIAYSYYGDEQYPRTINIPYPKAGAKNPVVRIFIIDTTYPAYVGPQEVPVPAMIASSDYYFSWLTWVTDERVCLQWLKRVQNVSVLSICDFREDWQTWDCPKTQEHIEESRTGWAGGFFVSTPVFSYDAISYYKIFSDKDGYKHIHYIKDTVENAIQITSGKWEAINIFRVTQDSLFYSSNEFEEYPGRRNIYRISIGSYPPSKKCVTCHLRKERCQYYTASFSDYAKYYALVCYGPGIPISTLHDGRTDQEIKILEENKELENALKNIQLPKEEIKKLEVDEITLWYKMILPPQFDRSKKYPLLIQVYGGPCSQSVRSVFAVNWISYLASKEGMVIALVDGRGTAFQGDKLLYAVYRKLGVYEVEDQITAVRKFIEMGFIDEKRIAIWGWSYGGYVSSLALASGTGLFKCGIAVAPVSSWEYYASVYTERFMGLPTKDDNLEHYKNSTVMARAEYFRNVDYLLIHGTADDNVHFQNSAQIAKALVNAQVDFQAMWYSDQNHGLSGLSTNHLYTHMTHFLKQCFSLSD
The experiment in a line: biochemical.

The results in this text go back to patent publication US20260070899A1, “N-(2-(4-CYANOTHIAZOLIDIN-3-YL)-2-OXOETHYL)-QUINOLINE-4-CARBOXAMIDES” (AstraZeneca AB, priority 2022, published 2026).

In brackets after ≈: the same amount, converted by molar mass.
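Wherever Kd is given: surface plasmon resonance direct binding to hFAP amine-coupled on a sensor chip, rising compound concentrations by single cycle kinetics, Kd from global fit of interaction models.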

What is called solubility is the dissolved amount per volume that the medium holds. A higher solubility goes with a readily soluble substance. Broadly, the microsomal CLint is a measure of how fast metabolising enzymes remove a compound, apart from limits set by blood flow. Low values mean greater metabolic stability, high ones faster metabolism. As usually defined, the IC50 is the concentration at which inhibition is half-maximal. High values mean lower potency, low ones higher potency. One may read the Kd as the concentration at which binding is half-saturated. Low readings indicate higher affinity, high ones lower affinity. `CC(c1ccc2nccc(C(=O)NCC(=O)N3CSC[C@H]3C#N)c2c1)c1ccc(Cl)cn1` (mixture of isomers) [Example 48, 6-((RS)-1-(5-Chloropyridin-2-yl)ethyl)-N-(2-((R)-4-cyanothiazolidin-3-yl)-2-oxoethyl)quinoline-4-carboxamide]: in “Kinetic solubility”, the solubility stood at 240 µM (≈ 112 µg/mL). The same compound came in with a microsomal CLint in data set [1] of over 300 µL/min/mg. The IC50 in data set [2] turned out to be 240 nM. Further, binding at hFAP (M39-A757) was characterised by a dissociation constant (Kd) of 0.12 nM. For the same compound, the “rHeps CLint” value in the data set on Rat Hepatocytes (rHep) is 27 μL/min/1E6.
In the same order, the values of `Cc1cc(C(C)c2ccc3nccc(C(=O)NCC(=O)N4CSC[C@H]4C#N)c3c2)on1` (mixture of isomers) [Example 49, N-(2-((R)-4-Cyanothiazolidin-3-yl)-2-oxoethyl)-6-((RS)-1-(3-methylisoxazol-5-yl)ethyl)quinoline-4-carboxamide] are 220 µM (≈ 95.8 µg/mL), 46 µL/min/mg, 110 nM, 0.13 nM and 24 μL/min/1E6.
In the same order, the values of `CC(c1ccnc(C(F)(F)F)c1)c1ccc2nccc(C(=O)NCC(=O)N3CSC[C@H]3C#N)c2c1` (mixture of isomers) [Example 52, N-(2-((R)-4-Cyanothiazolidin-3-yl)-2-oxoethyl)-6-((RS)-1-(2-(trifluoromethyl)pyridin-4-yl)ethyl)quinoline-4-carboxamide] are 120 µM (≈ 59.9 µg/mL), 210 µL/min/mg, 320 nM, 0.2 nM and 49 μL/min/1E6.
In “Kinetic solubility”, `N#C[C@@H]1CSCN1C(=O)CNC(=O)c1ccnc2ccc(C3CCOC3)cc12` (mixture of isomers) [Example 67, N-(2-((R)-4-Cyanothiazolidin-3-yl)-2-oxoethyl)-6-((RS)-tetrahydrofuran-3-yl)quinoline-4-carboxamide] returned a solubility of 880 µM (≈ 349 µg/mL). The IC50 at hFAP was determined as 0.3 nM; in data set [2] it was 87 nM. Moreover, the intrinsic clearance (microsomal CLint) in data set [1] is 16 µL/min/mg. The compound further had a Kd at hFAP (M39-A757) of 0.11 nM. Further, in the data set on Rat Hepatocytes (rHep), the “rHeps CLint” value was found to be 11 μL/min/1E6.
As to `N#C[C@@H]1CSCN1C(=O)CNC(=O)c1ccnc2ccc(OCC(F)F)cc12` [Example 2, (R)—N-(2-(4-Cyanothiazolidin-3-yl)-2-oxoethyl)-6-(2,2-difluoroethoxy)quinoline-4-carboxamide], the solubility in “Kinetic solubility” stood at 490 µM (≈ 199 µg/mL). This compound gave an intrinsic clearance (microsomal CLint) in data set [1] of 36 µL/min/mg. Further, the IC50 in data set [2] was determined as 190 nM. The compound further registered a Kd on hFAP (M39-A757) of 0.052 nM. In the data set with Rat Hepatocytes (rHep), the “rHeps CLint” value was found to be 5.9 μL/min/1E6.
In the same order, the values of `N#C[C@@H]1CSCN1C(=O)CNC(=O)c1ccnc2ccc(C3(c4ccnc(C(F)(F)F)c4)CC3)cc12` [Example 13, (R)—N-(2-(4-Cyanothiazolidin-3-yl)-2-oxoethyl)-6-(1-(2-(trifluoromethyl)pyridin-4-yl)cyclopropyl)quinoline-4-carboxamide] are 78 µM (≈ 39.9 µg/mL), over 300 µL/min/mg, 460 nM, 0.12 nM and 140 μL/min/1E6.
`N#C[C@@H]1CSCN1C(=O)CNC(=O)c1ccnc2ccc(-c3ccoc3)cc12` [Example 14, (R)—N-(2-(4-Cyanothiazolidin-3-yl)-2-oxoethyl)-6-(furan-3-yl)quinoline-4-carboxamide] returned a solubility in “Kinetic solubility” of 420 µM (≈ 165 µg/mL). The results for the IC50 (on hFAP; in data set [2]) were 0.079 nM and 8.4 nM, respectively. This compound also returned a microsomal CLint in data set [1] of 25 µL/min/mg. Besides, binding on hFAP (M39-A757) was put at a Kd of 0.046 nM. Also, in the data set on Rat Hepatocytes (rHep), the “rHeps CLint” value amounted to 11 μL/min/1E6.
The compound `CC1(c2ccc3nccc(C(=O)NCC(=O)N4CSC[C@H]4C#N)c3c2)CCOCC1` [Example 21, (R)—N-(2-(4-Cyanothiazolidin-3-yl)-2-oxoethyl)-6-(4-methyl-tetrahydro-2H-pyran-4-yl)quinoline-4-carboxamide] showed a solubility in “Kinetic solubility” of 500 µM (≈ 212 µg/mL). The compound further returned a microsomal CLint in data set [1] of 100 µL/min/mg. The compound also came in with an IC50 in data set [2] of 8.3 nM. In addition, the dissociation constant Kd on hFAP (M39-A757) turned out to be 140 nM. Also, the “rHeps CLint” value in the data set with Rat Hepatocytes (rHep) stood at 7.9 μL/min/1E6.
Compound `N#C[C@@H]1CSCN1C(=O)CNC(=O)c1ccnc2ccc(CF)cc12` [Example 29, (R)—N-(2-(4-cyanothiazolidin-3-yl)-2-oxoethyl)-6-(fluoromethyl)-quinoline-4-carboxamide] returned a solubility in the data set “Kinetic solubility” of over 1000 µM. Also, the IC50 against hFAP came out at 0.52 nM; in data set [2], 32 nM. The same compound came in with a microsomal CLint in data set [1] of 9.8 µL/min/mg. On hFAP (M39-A757), this compound showed a Kd of 1.4 nM. In the data set on Rat Hepatocytes (rHep), the “rHeps CLint” value was found to be 12 μL/min/1E6.
In turn, `Cc1cc(C2(c3ccc4nccc(C(=O)NCC(=O)N5CSC[C@H]5C#N)c4c3)CC2)no1` [Example 45, (R)—N-(2-(4-Cyanothiazolidin-3-yl)-2-oxoethyl)-6-(1-(5-methylisoxazol-3-yl)cyclopropyl)quinoline-4-carboxamide] showed a solubility in “Kinetic solubility” of 250 µM (≈ 112 µg/mL). The microsomal CLint in data set [1] was found to be 70 µL/min/mg. Besides, in data set [2], the IC50 stood at 150 nM. The compound further gave a Kd at hFAP (M39-A757) of 0.13 nM. Moreover, in the data set on Rat Hepatocytes (rHep), the “rHeps CLint” value turned out to be 21 μL/min/1E6.
Take `CC(F)(F)Cc1ccc2nccc(C(=O)NCC(=O)N3CSC[C@H]3C#N)c2c1` [Example 53, (R)—N-(2-(4-Cyanothiazolidin-3-yl)-2-oxoethyl)-6-(2,2-difluoropropyl)quinoline-4-carboxamide]: in “Kinetic solubility”, the solubility stood at 190 µM (≈ 76.8 µg/mL). This compound registered a microsomal CLint in data set [1] of 36 µL/min/mg. This compound also yielded an IC50 in data set [2] of 6.5 nM. The “rHeps CLint” value with Rat Hepatocytes (rHep) is 45 μL/min/1E6.
In the same order, the values of `N#C[C@@H]1CSCN1C(=O)CNC(=O)c1ccnc2ccc(CCC(F)(F)F)cc12` [Example 58, (R)—N-(2-(4-Cyanothiazolidin-3-yl)-2-oxoethyl)-6-(3,3,3-trifluoropropyl)quinoline-4-carboxamide] are 700 µM (≈ 296 µg/mL), 77 µL/min/mg, 64 nM and 17 μL/min/1E6.
Consider `N#C[C@@H]1CSCN1C(=O)CNC(=O)c1ccnc2ccc(C3(C#N)CCCCC3)cc12` [Example 60, (R)-6-(1-Cyanocyclohexyl)-N-(2-(4-cyanothiazolidin-3-yl)-2-oxoethyl)quinoline-4-carboxamide], for which the solubility in the data set “Kinetic solubility” turned out to be 180 µM (≈ 78 µg/mL). Moreover, in data set [1], the intrinsic clearance (microsomal CLint) is over 300 µL/min/mg. Moreover, half-maximal inhibition in data set [2] (IC50) was put at 290 nM. In addition, the “rHeps CLint” value with Rat Hepatocytes (rHep) was 110 μL/min/1E6.
